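The compound was tested at five concentrations on cells cultured in 96-well plates, with a 48-hour exposure period. At the GI50, growth is halved. TGI denotes the concentration required for complete inhibition of growth.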
Legend:
Assay in all cases: NCI tumour cell line growth inhibition, 48 h
RPMI-8226 leukemia = tested on: RPMI-8226 leukemia
SK-MEL-5 melanoma = tested on: SK-MEL-5 melanoma
MCF7 breast = tested on: MCF7 breast
U251 CNS = tested on: U251 CNS
SNB-75 CNS = tested on: SNB-75 CNS
SF-295 CNS = tested on: SF-295 CNS
NCI-H522 lung = tested on: NCI-H522 lung
T-47D breast = tested on: T-47D breast
HL-60(TB) leukemia = tested on: HL-60(TB) leukemia
CAKI-1 renal = tested on: CAKI-1 renal
KM12 colon = tested on: KM12 colon
NCI/ADR-RES ovarian = tested on: NCI/ADR-RES ovarian
UACC-62 melanoma = tested on: UACC-62 melanoma
EKVX NSCLC = tested on: EKVX NSCLC
PC-3 prostate = tested on: PC-3 prostate
RXF 393 renal = tested on: RXF 393 renal
SK-OV-3 ovarian = tested on: SK-OV-3 ovarian
M14 melanoma = tested on: M14 melanoma
MALME-3M melanoma = tested on: MALME-3M melanoma
TK-10 renal = tested on: TK-10 renal
NCI-H23 lung = tested on: NCI-H23 lung
NCI-H226 lung = tested on: NCI-H226 lung
UO-31 renal = tested on: UO-31 renal
HOP-62 NSCLC = tested on: HOP-62 NSCLC
COLO 205 colon = tested on: COLO 205 colon
IGROV1 ovarian = tested on: IGROV1 ovarian
LOX IMVI melanoma = tested on: LOX IMVI melanoma
HT29 colon = tested on: HT29 colon
SF-539 CNS = tested on: SF-539 CNS

## COc1cc(/C=C/C(=O)c2cccnc2Nc2ccc(F)cc2)cc(OC)c1OC
RPMI-8226 leukemia
  TGI: 8.07 µM
SK-MEL-5 melanoma
  GI50: 2510 nM
  TGI: 8.24 µM
MCF7 breast
  GI50: 2440 nM
  TGI: 13.6 µM
U251 CNS
  GI50: 2780 nM
  TGI: 11.5 µM
SNB-75 CNS
  GI50: 1930 nM
  TGI: 8.51 µM
SF-295 CNS
  GI50: 4.16 µM
  TGI: 69.4 µM
NCI-H522 lung
  GI50: 2690 nM
  TGI: 7.04 µM
T-47D breast
  GI50: 3.96 µM
  TGI: 25 µM
HL-60(TB) leukemia
  GI50: 2400 nM
  TGI: 7.15 µM
CAKI-1 renal
  GI50: 3.68 µM
  TGI: 39.5 µM
KM12 colon
  GI50: 3.72 µM
  TGI: 17.6 µM
NCI/ADR-RES ovarian
  GI50: 2370 nM
  TGI: 8.14 µM
UACC-62 melanoma
  GI50: 2350 nM
  TGI: 6.58 µM
EKVX NSCLC
  GI50: 3.94 µM
  TGI: > 100 µM
PC-3 prostate
  GI50: 3.95 µM
  TGI: 20 µM
RXF 393 renal
  GI50: 2810 nM
  TGI: 8.97 µM
SK-OV-3 ovarian
  GI50: 3.1 µM
  TGI: 8.67 µM
M14 melanoma
  GI50: 3.19 µM
  TGI: 9.94 µM
MALME-3M melanoma
  GI50: 6.9 µM
  TGI: 48.9 µM
TK-10 renal
  GI50: 3.52 µM
  TGI: 9.5 µM
NCI-H23 lung
  GI50: 2340 nM
  TGI: 7.77 µM
NCI-H226 lung
  GI50: 1790 nM
  TGI: 3.78 µM
UO-31 renal
  GI50: 5.62 µM
  TGI: 48 µM
HOP-62 NSCLC
  GI50: 2900 nM
  TGI: 7.82 µM
COLO 205 colon
  GI50: 2640 nM
  TGI: 5.53 µM
IGROV1 ovarian
  GI50: 7.42 µM
  TGI: 50.3 µM
LOX IMVI melanoma
  GI50: 1690 nM
  TGI: 3.59 µM
HT29 colon
  GI50: 2750 nM
  TGI: 6.69 µM
SF-539 CNS
  GI50: 2850 nM
  TGI: 7.29 µM

— PubChem BioAssay (NCI)
